Tests used:
[1] = test system: genome-wide off-target sites; conditions: genome-wide assessment of off-target activity; cited from earlier work
[2] = test system: target sites with TYCV/CCCC and TATV PAMs; conditions: in vitro and in human cells; cited from earlier work
Factor VII = conditions: LNP siRNA systems containing the lipid; hepatocytes in vivo; cited from earlier work
essential genes [3] = experiment: PAM identification by analysis of essential genes in a dropout screen; assay type: cell-based; conditions: cell lines A375, MelJuSo, A549, OVCAR8, and 7860
MAPK1-MAPK3 = experiment: Synthetic lethal (SynLet) multiplexed guide pair screen; assay type: cell-based, human; conditions: MAPK1-MAPK3, OVCAR8 cells
Description: For a construct with the ordered elements guide1, DR, guide2, it can be said that the
[formula] where m and β are a fitted slope and intercept. The residual then is the difference between the observed and expected LFCs. Filtering SynLet Libraries
To assess the effectiveness of multiplexing across numerous endogenous genes, a library targeting synthetically lethal (SynLet) gene pairs was designed. […] For As Cas12a, a second guide needed only 43 additional nucleotides. […] Furthermore, the proximity of guides in the enCas12a construct made sequencing and downstream analyses easier.
For each gene in a given pair, up to 20 guides were picked at random, 15 and 5 of which targeted TTTV and TTTT PAMs respectively (FIG. 15A). Pairs were screened in both orientations and the top three direct repeats were used. Thus, each gene pair was assessed with up to 2,400 unique constructs (20 guides×20 guides×2 orientations×3 DRs). […]
To quantitate synergies between guide pairs, an expected phenotype was first calculated by determining the average LFC of each targeting guide when it was coupled with controls (FIG. 29A), and then summing the average LFC for the two guides. […] Finally, the residual from the fit line for all constructs were calculated, where a negative residual indicates a synthetic lethal pair. […]

CD47, CD63, and B2M = experiment: Triple knockout with Cas12a, flow cytometry of cell surface markers in A375 cells; assay type: cell-based, human; conditions: 6 multiplexed arrays, three timepoints, irrespective of guide position
Experimental: A375 cells stably expressing enCas12a were transduced with 6 triple knockout arrays, 3 single knockout constructs, and one empty control vector. Two days after transduction, cells were selected with puromycin ([…]), and passaged on puromycin for 7 days. Cells were visualized by flow cytometry on the BDAccuri C6 Sampler system 9, 18, and 25 days post infection. […] Flow cytometry data were analyzed using FlowJo (v10). […] Zero, single, double, and triple knockout populations were quantified using boolean gating in FlowJo.
Using these guides, 6 multiplexed arrays with all possible guide orientations were generated (FIG. 21A-21B). Three single guide constructs, and one empty vector control, and used flow cytometry were also included (FIGS. 31A-31E) to quantify the fraction of cells that were edited or not for all three markers. […] In this internally-controlled assay, EGFP labels cells without enCas12a (and thus no dsDNA breaks) and the fraction of enCas12a-positive, EGFP-negative cells over time was measured by flow cytometry (FIG. 33A). […]

[4] = test system: target sites preceded by a PAM; experiment: Determination of PAM (plasmid depletion in E. coli); assay type: cell-based; conditions: N is A/C/G or T
Description: Determination of PAM can be ensured as follows This experiment closely parallels similar work in E. coli for the heterologous expression of StCas9 (Sapranauskas, R. et al. Nucleic Acids Res 39, 9275-9282 (2011)). Applicants introduce a plasmid containing both a PAM and a resistance gene into the heterologous E. coli, and then plate on the corresponding antibiotic. If there is DNA cleavage of the plasmid, Applicants observe no viable colonies.
In further detail, the assay is as follows for a DNA target. Two E. coli strains are used in this assay. One carries a plasmid that encodes the endogenous effector protein locus from the bacterial strain. The other strain carries an empty plasmid (e.g. pACYC184, control strain). All possible 7 or 8 bp PAM sequences are presented on an antibiotic resistance plasmid (pUC19 with ampicillin resistance gene). The PAM is located next to the sequence of proto-spacer 1 (the DNA target to the first spacer in the endogenous effector protein locus). Two PAM libraries were cloned. One has an 8 random bp 5′ of the proto-spacer (e.g., total of 65536 different PAM sequences=complexity). The other library has 7 random bp 3′ of the proto-spacer (e.g. total complexity is 16384 different PAMs). Both libraries were cloned to have in average 500 plasmids per possible PAM. […]

essential genes [5] = experiment: AsCas12a tiling library pooled dropout (viability) screens; assay type: cell-based, human; set-up: AUC after selecting top half of guides by Seq-DeepCpf1 score: unit not given beside the values; conditions: for guides targeting a TTTT site observed to be active / precision recall area under curve (AUC): A375 viability data; for guides targeting a TTTT site observed to be active: activity cutoff 5th percentile of guides targeting control genes; for precision recall area under curve (AUC): essential gene guides true positives, control gene guides false positives, TTTT PAMs excluded for AsCas12a; for AUC after selecting top half of guides by Seq-DeepCpf1 score: essential and non-essential guides of the tiling screens; for guides active, all guides / guides active, quartile with the highest Seq-DeepCpf1 prediction scores: guides targeting essential genes, cutoff 5th percentile of cell surface control guides
Description: The AsCas12a library was cloned into a modified version of lentiGuide, pRDA_052, which expresses the guide from a U6 promoter and confers puromycin resistance.

essential genes [6] = experiment: Mismatched guide library off-target dropout screen in A375 cells; conditions: cutoff 5th percentile of controls
Experimental: Cell lines stably expressing Cas12a were transduced with guides cloned into the pRDA_052 vector in two biological replicates at a low MOI (˜0.5). Transductions were performed with enough cells to achieve a representation of at least 500 cells per guide per replicate, taking into account a 30-50% transduction efficiency. Throughout the screen, cells were split at a density to maintain a representation of at least 500 cells per guide, and cell counts were taken at each passage to monitor growth. Puromycin selection was added 2 days post-transduction and was maintained for 5-7 days. After puromycin selection was complete, each replicate was divided into untreated (i.e. no drug/dropout arms) and small molecule treatment arms, each at a representation of at least 500 cells per guide.
In order to assess the off-target tolerance of AsCas12a, a library of guides intentionally mismatched to their target was constructed. […] Screens were performed in duplicate in A375 cells with dropout, vemurafenib, and 6-thioguanine arms in cells stably expressing 2×NLS-Cas12a and enCas12a.

dystrophin = conditions: 48 weeks; cited from earlier work

Molecule: S542R/K607R: variant of AsCpf1 engineered with the mutations S542R/K607R
- DNA targeting specificity [1]: retain a high level of DNA targeting specificity
- PAMs of target sites that can be cleaved [2]: TYCV/CCCC

Molecule: CCCCC/C=C\C/C=C\CCCCCCCCOCC(CN(C)C)OCCCCCCCC/C=C\C/C=C\CCCCC (stereo not shown) [DLinDMA, 1,2-dilinoleyloxy-3-N,N-dimethylaminopropane]
- potency order of gene silencing (Factor VII): DLinKC2-DMA>DLinKDMA>DLinDMA>>DLinDAP

Molecule: AsCas12a: Cas12a (Cpf1) effector used for the screens, here in multiplexed guide arrays
- protospacer adjacent motif (PAM) (essential genes [3]): TTTV
- guide pairs scored as synthetic lethal (MAPK1-MAPK3): 98%
- cells showing editing at all three loci (CD47, CD63, and B2M): approximately 70%

Molecule: CCCCC/C=C\C/C=C\CCCCCCCC(=O)OCC(CN(C)C)OC(=O)CCCCCCC/C=C\C/C=C\CCCCC (stereo not shown) [DLinDAP, 1,2-dilineoyl-3-dimethylammonium-propane]
- potency order of gene silencing (Factor VII): DLinKC2-DMA>DLinKDMA>DLinDMA>>DLinDAP

Molecule: AsCpf1: Acidaminococcus sp. BV3L6 Cpf1
- PAM preceding the target sites that can be cleaved [4]: TTTV

Molecule: 2×NLS-Cas12a: 2×-NLS-Cas12a lentiviral expression construct
- guides targeting a TTTT site observed to be active (essential genes [5]): 7%
- precision recall area under curve (AUC) (essential genes [5]): 0.84
- AUC after selecting top half of guides by Seq-DeepCpf1 score (essential genes [5]): 0.94
- guides active, all guides (essential genes [5]): 47%
- guides active, quartile with the highest Seq-DeepCpf1 prediction scores (essential genes [5]): 92%
- double mismatch guides active (essential genes [6]): 9%
- perfect match guides scoring as active (essential genes [6]): 94%
- single mismatch guides active (essential genes [6]): 28%

Molecule: 1×NLS-Cas12a: lx-NLS-Cas12a lentiviral expression construct; Addgene 84750 [reference compound]
- guides targeting a TTTT site observed to be active (essential genes [5]): 7%
- precision recall area under curve (AUC) (essential genes [5]): 0.61

Molecule: enCas12a: enCas12a lentiviral expression construct; AsCas12a comprising E174R/S542R/K548R mutations
- guides targeting a TTTT site observed to be active (essential genes [5]): 57%
- precision recall area under curve (AUC) (essential genes [5]): 0.96
- EEF2 guides targeting TTTN active (essential genes [5]; EEF2 guides of the tiling library): 62%
- non-canonical tier 1 guides active, quartile with highest Seq-DeepCpf1 scores (essential genes [5]; TTTC substituted in silico for the actual PAM): 93%
- AUC after selecting top half of guides by Seq-DeepCpf1 score (essential genes [5]): 0.97
- guides active, all guides (essential genes [5]): 80%
- guides active, quartile with the highest Seq-DeepCpf1 prediction scores (essential genes [5]): 94%
- EEF2 guides targeting the other tier 1 PAMs active (essential genes [5]; non-canonical (non-TTTN) PAMs): 68%
- double mismatch guides active (essential genes [6]): 16%
- perfect match guides scoring as active (essential genes [6]): 91%
- single mismatch guides active (essential genes [6]): 54%

Molecule: 1,2-dilinoleyloxy-keto-N,N-dimethyl-3-aminopropane [DLinKDMA]
- potency order of gene silencing (Factor VII): DLinKC2-DMA>DLinKDMA>DLinDMA>>DLinDAP

Molecule: S542R/K548V/N552R: variant of AsCpf1 engineered with the mutations S542R/K548V/N552R
- DNA targeting specificity [1]: retain a high level of DNA targeting specificity
- PAMs of target sites that can be cleaved [2]: TATV

Molecule: Eteplirsen
- dystrophin positive fibers compared to baseline (average) (dystrophin): 47%

Molecule: CCCCC/C=C\C/C=C\CCCCCCCCC1(CCCCCCCC/C=C\C/C=C\CCCCC)OCC(CCN(C)C)O1 (stereo not shown) [DLinKC2-DMA, 1,2-dilinoleyl-4-(2-dimethylaminoethyl)-[1,3]-dioxolane]
- potency order of gene silencing (Factor VII): DLinKC2-DMA>DLinKDMA>DLinDMA>>DLinDAP
